Assay results taken from patent EP0306846A2, “Synergistic combination comprising a phosphodiesterase inhibitor and a thromboxane-A2 antagonist, and its use or preparation” (Dr. Karl Thomae GmbH, priority 1987, dated 1989).

Legend:
[1] = in combination with Dipyridamol; J. Clin. Invest. 75, 1591-1599 (1985); cited from earlier work
[2] = system: Plättchenaggregation im Gesamtblut; experiment: collagen-induced platelet aggregation in pooled rat whole blood, substances added in vitro; assay type: cell-based, Ratten; details: collagen 7 µg/ml, read-out: % Hemmung
Protocol: Ratten mit einem durchschnittlichen Körpergewicht von 250 bis 300 g wurden mit 60 mg/kg Pentobarbital narkotisiert. Aus der abdominalen Arterie wurde 4,5 ml Blut entnommen und in 0,5 ml Zitrat (3,8 %) gegeben. Das Blut von 3 Ratten wurde jeweils gepoolt und Proben hiervon, die Lösungsmittel, die Einzelsubstanzen oder die zu untersuchende Kombination enthielten, wurden 10 Minuten lang rotiert. Von diesen Proben wurden jeweils 200 µl in Aggregometer-Küvetten gegeben und 5 Minuten lang bei 37°C gerührt. Anschließend wurden 10 µl Collagenlösung (Endkonzentration: 7 µg/ml) zugegeben und zu verschiedenen Zeiten jeweils 10 µl Blut entnommen, welches anschließend mit Formaldehyd fixiert wurde. In diesen Proben wurden die nicht aggregierten Plättchen mit einem Ultra-Flo 100 (Becton-Dickinson) bestimmt. Die nachfolgende Tabelle enthält die gefundenen Werte: […]

[3] = system: Plättchenaggregation im Gesamtblut; experiment: collagen-induced platelet aggregation in whole blood of rats after administration of the substances (ex vivo); set-up: species or system Ratten; details: rat, versus vehicle controls
Protocol: Ratten mit einem durchschnittlichen Körpergewicht von 250 bis 300 g wurden mit 60 mg/kg Pentobarbital narkotisiert. Aus der abdominalen Arterie wurde 4,5 ml Blut entnommen und in 0,5 ml Zitrat (3,8 %) gegeben. Das Blut von 3 Ratten wurde jeweils gepoolt und Proben hiervon, die Lösungsmittel, die Einzelsubstanzen oder die zu untersuchende Kombination enthielten, wurden 10 Minuten lang rotiert. Von diesen Proben wurden jeweils 200 µl in Aggregometer-Küvetten gegeben und 5 Minuten lang bei 37°C gerührt. Anschließend wurden 10 µl Collagenlösung (Endkonzentration: 7 µg/ml) zugegeben und zu verschiedenen Zeiten jeweils 10 µl Blut entnommen, welches anschließend mit Formaldehyd fixiert wurde. In diesen Proben wurden die nicht aggregierten Plättchen mit einem Ultra-Flo 100 (Becton-Dickinson) bestimmt. Die nachfolgende Tabelle enthält die gefundenen Werte:
Desweiteren wurde die synergistische Wirkung auf die Plättchenaggregation im Gesamtblut für die Kombination, bestehen aus Pimobendan (Substanz C) und Substanz B in Vergleich zu den Einzelverbindungen wie folgt untersucht: Ratten mit einem durchschnittlichen Körpergewicht von 250 bis 300 g Körpergewicht wurden 5 mg/kg Substanz C und 0,5 mg/kg Substanz B oder die Kombination im Vergleich zu Kontrollen, welche nur das Vehikel appliziert bekamen, gegeben. […]

O=C(O)c1ccc(OCCn2ccnc2)cc1 [Dazoxiben, 4-[2-(1H-Imidazol-1-yl)-ethoxy]benzoesäure]
Einfluß auf die antithrombotische Wirkung des PDE-Hemmers [1]: keinen verbessernden Einfluß

CCOc1nc(N2CCNCC2)nc(N2CC[S+]([O-])CC2)c1[N+](=O)[O-] [Substanz A, 6-Äthoxy-5-nitro-4-(1-oxidothiomorpholino)-2-piperazino-pyrimidin]
inhibition at 0.03 µM ([2]; 0,03 µMol/l): 4%

O=C(O)CCCc1ccc2c(c1)CC(NS(=O)(=O)c1ccc(Cl)cc1)C2 (stereo not drawn) [Substanz B, 4-[2-p-Chlorbenzolsulfonamido-indan-5-yl]-buttersäure]
% Hemmung ([3]; dose 0,5 mg/kg): 59% | inhibition at 0.1 µM ([2]; 0,10 µMol/l): 3% | inhibition at 0.3 µM ([2]; 0,30 µMol/l): 19%

COc1ccc(-c2nc3ccc(C4=NNC(=O)CC4C)cc3[nH]2)cc1 (stereo not drawn) [Substanz C, 2-(4-Methoxy-phenyl)-5(6)-(5-methyl-3-oxo-4,5-dihydro-2H-6-pyridazinyl)-benzimidazol, reference compound]
% Hemmung ([3]; dose 5,0 mg/kg): -1%
